SMILES strings stand for the structures. Values after ≈ are worked out from the molar mass of the structure shown.

Consider 43 compounds from patent US20130096119A1, “Isoquinolin-3-Ylurea Derivatives” (priority 2010, published 2013).

The subject of the experiment is S. pneumoniae ATCC 49619. Briefly: Minimal inhibitory concentration (MIC) by microdilution method (CLSI M7-A7). The experiment is classed as cell-based, Streptococcus pneumoniae. Conditions: Streptococcus pneumoniae, ATCC49619, cation-adjusted Mueller-Hinton Broth supplemented with 3% (v/v) lysed horse blood. The essentials: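 For S. pneumoniae, cation-adjusted Mueller-Hinton broth carried 3% (v/v) lysed horse blood; MICs (mg/l) were read by CLSI M7-A7 microdilution.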
(Dilution methods test growth across graded concentrations, often in twofold steps.)
Take `CCNC(=O)Nc1cc2cc(NCc3ccc(-n4cnc(C)n4)cc3)cc(C)c2cn1.Cl` [Example 131, 1-ethyl-3-{8-methyl-6-[4-(3-methyl-[1,2,4]triazol-1-yl)-benzylamino]-isoquinolin-3-yl}-urea hydrochloride]: inhibition of growth (MIC) required 4 µg/mL. To `CCNC(=O)Nc1cc2cc(NCc3ccc(S(=O)(=O)NC)cc3)cc(C)c2cn1` [Example 189, 4-{[3-(3-ethyl-ureido)-8-methyl-isoquinolin-6-ylamino]-methyl}-N-methyl-benzenesulfonamide] belongs 8 µg/mL (≈ 18.7 µM); to `CCNC(=O)Nc1cc2c(F)c(-c3cccc(NC(C)=O)c3)cc(Nc3cccnc3)c2cn1` [Example 234, N-{3-[3-(3-ethyl-ureido)-5-fluoro-8-(pyridin-3-ylamino)-isoquinolin-6-yl]phenyl}-acetamide], 0.25 µg/mL (≈ 0.545 µM); to `CCNC(=O)Nc1cc2cccc(Nc3cccc(NC(C)=O)c3)c2cn1` [Example 172, N-{3-[3-(3-ethyl-ureido)-isoquinolin-8-ylamino]-phenyl}-acetamide], 2 µg/mL (≈ 5.5 µM). To `CCNC(=O)Nc1cc2c(F)ccc(C)c2cn1` [Example 60, 1-ethyl-3-(5-fluoro-8-methyl-isoquinolin-3-yl)-urea] belongs 4 µg/mL (≈ 16.2 µM); to `CCNC(=O)Nc1cc2c(-c3cnn(C)c3)ccc(C)c2cn1.Cl` [Example 284, 1-ethyl-3-[8-methyl-5-(1-methyl-1H-pyrazol-4-yl)-isoquinolin-3-yl]-urea hydrochloride], 4 µg/mL. To `CCNC(=O)Nc1cc2cccc(Nc3ncccc3C)c2cn1.Cl` [Example 167, 1-ethyl-3-[8-(3-methyl-pyridin-2-ylamino)-isoquinolin-3-yl]-urea hydrochloride] belongs 8 µg/mL; to `CCNC(=O)Nc1cc2c(Br)ccc(C)c2cn1` [Example 1, 1-(5-bromo-8-methyl-isoquinolin-3-yl)-3-ethyl-urea], 1 µg/mL (≈ 3.24 µM). `CCNC(=O)Nc1cc2c(-c3cccc(O)c3)ccc(C)c2cn1` [Example 68, 1-ethyl-3-[5-(3-hydroxy-phenyl)-8-methyl-isoquinolin-3-yl]-urea]: inhibition of growth (MIC) required 4 µg/mL (≈ 12.4 µM). The figure for `CCNC(=O)Nc1cc2c(-c3ccnnc3)ccc(C)c2cn1` [Example 279, 1-ethyl-3-(8-methyl-5-pyridazin-4-yl-isoquinolin-3-yl)-urea] is 1 µg/mL (≈ 3.25 µM); for `CCNC(=O)Nc1cc2c(-c3ccncc3)ccc(-c3ccncc3)c2cn1` [Example 72, 1-(5,8-di-pyridin-4-yl-isoquinolin-3-yl)-3-ethyl-urea] it is 2 µg/mL (≈ 5.41 µM); for `CCNC(=O)Nc1cc2c(-c3ccncn3)ccc(Cl)c2cn1` [Example 286, 1-(8-chloro-5-pyrimidin-4-yl-isoquinolin-3-yl)-3-ethyl-urea] it is 8 µg/mL (≈ 24.4 µM). The figure for `CCNC(=O)Nc1cc2c(-c3ccc(C(=O)NC)cc3)ccc(C)c2cn1` [Example 6, 4-[3-(3-ethyl-ureido)-8-methyl-isoquinolin-5-yl]-N-methyl-benzamide] is 0.5 µg/mL (≈ 1.38 µM). As for `CCNC(=O)Nc1cc2cc(-c3cccnc3F)cc(C)c2cn1` [Example 100, 1-ethyl-3-[6-(2-fluoro-pyridin-3-yl)-8-methyl-isoquinolin-3-yl]-urea], the MIC turned out to be 2 µg/mL (≈ 6.17 µM). As to `CCNC(=O)Nc1cc2c(-c3ccc(NC(=O)OC)cc3)ccc(C)c2cn1` [Example 65, {4-[3-(3-ethyl-ureido)-8-methyl-isoquinolin-5-yl]-phenyl}-carbamic acid methyl ester], the MIC was 2 µg/mL (≈ 5.28 µM).

`C=Cc1ccc(-c2ccncc2)c2cc(NC(=O)NCC)ncc12` [Example 140, 1-ethyl-3-[5-(pyridin-4-yl)-8-vinylisoquinolin-3-yl]-urea] displayed a minimal inhibitory concentration (MIC) of 2 µg/mL (≈ 6.28 µM). To `CCNC(=O)Nc1cc2c(-c3ccncc3)ccc(Nc3cccc(C)n3)c2cn1` [Example 219, 1-ethyl-3-[8-(6-methyl-pyridin-2-ylamino)-5-pyridin-4-yl-isoquinolin-3-yl]-urea] belongs 0.25 µg/mL (≈ 0.627 µM); to `CCNC(=O)Nc1cc2cccc(NC(=O)c3cnn[nH]3)c2cn1.Cl` [Example 183, 3H-[1,2,3]triazole-4-carboxylic acid [3-(3-ethyl-ureido)-isoquinolin-8-yl]-amide hydrochloride], 4 µg/mL; to `CCNC(=O)Nc1cc2cccc(Oc3cccnc3)c2cn1` [Example 147, 1-ethyl-3-[8-(pyridin-3-yloxy)-isoquinolin-3-yl]-urea], 4 µg/mL (≈ 13 µM).

For the compound `CCNC(=O)Nc1cc2cc(-c3cncc4ccccc34)cc(C)c2cn1` [Example 91, 1-ethyl-3-(8′-methyl-[4,6′]biisoquinolinyl-3′-yl)-urea], 2 µg/mL (≈ 5.61 µM) was the least that counted as inhibitory (MIC). The figure for `Cc1ccc(-c2ccncc2)c2cc(NC(=O)NCCF)ncc12` [Example 138, 1-(2-fluoro-ethyl)-3-(8-methyl-5-pyridin-4-yl-isoquinolin-3-yl)-urea] is 1 µg/mL (≈ 3.08 µM); for `CCNC(=O)Nc1cc2cccc(Nc3ccc(C)cn3)c2cn1.Cl` [Example 163, 1-ethyl-3-[8-(5-methyl-pyridin-2-ylamino)-isoquinolin-3-yl]-urea hydrochloride] it is 2 µg/mL. `CCNC(=O)Nc1cc2c(-c3ccnc(OC)c3)ccc(Nc3cccnc3)c2cn1` [Example 225, 1-ethyl-3-[5-(2-methoxy-pyridin-4-yl)-8-(pyridin-3-ylamino)-isoquinolin-3-yl]urea]: the lowest concentration to inhibit growth (MIC) was 0.125 µg/mL (≈ 0.302 µM). The figure for `CCNC(=O)Nc1cc2cc(-c3ccc(S(C)(=O)=O)cc3)cc(C)c2cn1` [Example 94, 1-ethyl-3-[6-(4-methanesulfonyl-phenyl)-8-methyl-isoquinolin-3-yl]-urea] is 0.25 µg/mL (≈ 0.652 µM); for `CCNC(=O)Nc1cc2cc(NCc3ccccc3)cc(C)c2cn1` [Example 58, 1-(6-benzylamino-8-methyl-isoquinolin-3-yl)-3-ethyl-urea] it is 8 µg/mL (≈ 23.9 µM). The figure for `CCNC(=O)Nc1cc2c(F)c(-c3cccnc3)cc(-c3ccc(C(=O)O)cc3)c2cn1` [Example 33, 4-[3-(3-ethyl-ureido)-5-fluoro-6-pyridin-3-yl-isoquinolin-8-yl]-benzoic acid] is 1 µg/mL (≈ 2.32 µM). Compound `CCNC(=O)Nc1cc2c(-c3cscn3)ccc(Nc3cccc(OC)n3)c2cn1` [Example 290, 1-ethyl-3-[8-(6-methoxy-pyridin-2-ylamino)-5-thiazol-4-yl-isoquinolin-3-yl]-urea] registered an MIC of 0.5 µg/mL (≈ 1.19 µM). For the compound `CCNC(=O)Nc1cc2cc(-c3ccc4nccn4c3)cc(C)c2cn1` [Example 25, 1-ethyl-3-(6-imidazo[1,2-a]pyridin-6-yl-8-methyl-isoquinolin-3-yl)-urea], 0.5 µg/mL (≈ 1.45 µM) was the least that counted as inhibitory (MIC). To `CCNC(=O)Nc1cc2c(-c3ccncc3)ccc(OC)c2cn1` [Example 125, 1-ethyl-3-(8-methoxy-5-pyridin-4-yl-isoquinolin-3-yl)-urea] belongs 4 µg/mL (≈ 12.4 µM); to `CCNC(=O)Nc1cc2cccc(COc3cccc(N)c3)c2cn1.Cl` [Example 260, 1-[8-(3-amino-phenoxymethyl)-isoquinolin-3-yl]-3-ethyl-urea hydrochloride], 8 µg/mL. Turning to `CCNC(=O)Nc1cc2cccc(Nc3ccc(C)nc3)c2cn1.Cl` [Example 164, 1-ethyl-3-[8-(6-methyl-pyridin-3-ylamino)-isoquinolin-3-yl]-urea hydrochloride], the minimum inhibitory concentration (MIC) turned out to be 2 µg/mL. Consider `CCNC(=O)Nc1cc2cc(-c3cccc(OC)c3)cc(C)c2cn1` [Example 76, 1-ethyl-3-[6-(3-methoxy-phenyl)-8-methyl-isoquinolin-3-yl]-urea], for which the MIC was 1 µg/mL (≈ 2.98 µM).

`CCNC(=O)Nc1cc2c(NCC)ccc(C)c2cn1` [Example 63, 1-ethyl-3-(5-ethylamino-8-methyl-isoquinolin-3-yl)-urea] registered an MIC of 2 µg/mL (≈ 7.34 µM).

In the case of `CCNC(=O)Nc1cc2c(-c3ccncc3)ccc(Oc3cccnc3)c2cn1` [Example 222, 1-ethyl-3-[5-pyridin-4-yl-8-(pyridin-3-yloxy)-isoquinolin-3-yl]-urea], the MIC amounted to 1 µg/mL (≈ 2.59 µM). The compound `CCNC(=O)Nc1cc2cccc(Nc3nnc(C)o3)c2cn1` [Example 154, 1-ethyl-3-[8-(5-methyl-[1,3,4]oxadiazol-2-ylamino)-isoquinolin-3-yl]-urea] registered an MIC of 8 µg/mL (≈ 25.6 µM). To `CCNC(=O)Nc1cc2c(F)ccc(Cc3ccccc3)c2cn1` [Example 46, 1-(8-benzyl-5-fluoro-isoquinolin-3-yl)-3-ethyl-urea] belongs 1 µg/mL (≈ 3.09 µM); to `CCNC(=O)Nc1cc2cc(NCc3ccc4c(c3)OCCN4C)cc(C)c2cn1.Cl` [Example 130, 1-ethyl-3-{8-methyl-6-[(4-methyl-3,4-dihydro-2H-benzo[1,4]oxazin-7-ylmethyl)-amino]isoquinolin-3-yl}-urea hydrochloride], 8 µg/mL. To `CCNC(=O)Nc1cc2cccc(Nc3cncnc3)c2cn1` [Example 149, 1-ethyl-3-[8-(pyrimidin-5-ylamino)-isoquinolin-3-yl]-urea] belongs 2 µg/mL (≈ 6.49 µM); to `CCNC(=O)Nc1cc2c(-c3ccnc(C)c3)ccc(Nc3cccc(C(=O)N(C)C)c3)c2cn1` [Example 248, 3-[3-(3-ethyl-ureido)-5-(2-methyl-pyridin-4-yl)-isoquinolin-8-ylamino]-N,N-dimethyl-benzamide], 0.5 µg/mL (≈ 1.07 µM).

`CCNC(=O)Nc1cc2cccc(COc3ccncc3C(=O)OC)c2cn1.Cl` [Example 212, 4-[3-(3-ethyl-ureido)-isoquinolin-8-ylmethoxy]-nicotinic acid methyl ester hydrochloride] yielded an MIC of 8 µg/mL. Against the preceding compound, the MIC is about 16-fold higher. To `CCNC(=O)Nc1cc2cc(-c3ccc(C(N)=O)cc3)cc(C)c2cn1` [Example 30, 4-[3-(3-ethyl-ureido)-8-methyl-isoquinolin-6-yl]-benzamide] belongs 1 µg/mL (≈ 2.87 µM); to `CCNC(=O)Nc1cc2cc(NC(=O)c3ccc(N(C)C)cc3)cc(C)c2cn1` [Example 121, 4-dimethylamino-N-[3-(3-ethyl-ureido)-8-methyl-isoquinolin-6-yl]-benzamide], 0.25 µg/mL (≈ 0.639 µM).

On to `CCNC(=O)Nc1cc2c(-c3cccc4[nH]ccc34)ccc(C)c2cn1` [Example 69, 1-ethyl-3-[5-(1H-indol-4-yl)-8-methyl-isoquinolin-3-yl]-urea], for which the MIC came out at 16 µg/mL (≈ 46.5 µM).

For orientation: MIC means the lowest concentration that inhibits growth of the organism. Low values mean a more susceptible organism, high ones a less susceptible organism.
